What all share (assay type): cell-based
One experiment relates to A431 cells. Put plainly: In vitro tumor cell proliferation assay (Cell Titer-Glo) in A431 cells. The settings on record: Homo sapiens, A-431, 72 h, A431 human epidermoid carcinoma overexpressing HER1; 72 hours exposure; read-out: IC50, activities in A431 cell lines. The method in brief: (§1)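 Viability after 72 h drug exposure at 37 °C was read as CellTiter-Glo ATP luminescence, giving IC50. Cells (2.5×10^3/well, RPMI + 10% FBS) were compound-treated one day post-seeding, 0.1% DMSO final: A431 overexpresses HER1, N87 overexpresses HER2 and HER1.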

The test system of another experiment is N87. Nature of the experiment: In vitro tumor cell proliferation assay (Cell Titer-Glo) in N87 cells. The settings on record: N87 human gastric carcinoma overexpressing HER2 and HER1; 72 hours exposure; read-out: IC50, activities in N87 cell lines. In a few lines: as §1
The next experiment deals with H1975 cells. Put plainly: In vitro tumor cell proliferation assay (Cell Titer-Glo) in H1975 cells. As to conditions: NCI-H1975; H1975 human NSCLC expressing mutant HER1 (L858R,T790M); 72 hours exposure; read-out: IC50, activities in H 1975 cell lines. The method in brief: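 After 72 h compound exposure at 37° C (top 10 uM down to 64 pM, 0.1% DMSO), viability of EGFR L858R/T790M-mutant H1975 cells was read as ATP luminescence.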

pIC50: −log10 of the molar value. Where only a bound is given, the exact number is not on record here.

In the case of `CCN(C/C=C/C(=O)N1CCc2c(sc3ncnc(Nc4cccc(Br)c4)c23)C1)C1CCCCC1` [Example 201, N-(3-bromophenyl)-7-{(2E)-4-[cyclohexyl(ethyl)amino]but-2-enoyl}-5,6,7,8-tetrahydropyrido [4′,3′:4,5]thieno[2,3-d]pyrimidin-4-amine], the negative logarithm of the IC50 (pIC50) was 6.00 to 6.70 with A431 cells, > 6.70 with N87 and 6.00 to 6.70 in the experiment on H1975 cells.

For `CN1CCC=C(C(=O)N2CCc3c(sc4ncnc(Nc5ccc(OCc6ccccn6)c(Cl)c5)c34)C2)C1` [Example 30, N-[3-chloro-4-(pyridin-2-ylmethoxy)phenyl]-7-[(1-methyl-1,2,5,6-tetrahydropyridin-3-yl)carbonyl]-5,6,7,8-tetrahydropyrido [4′,3′:4,5]thieno[2,3-d]pyrimidin-4-amine], the pIC50 was 5.00 to 6.00 in the experiment on A431 cells, 5.30 to 6.70 with N87 and 5.00 to 6.00 in the experiment with H1975 cells.

As for `CN(C)C/C=C/C(=O)N1CCc2c(sc3ncnc(Nc4ccc5c(cnn5Cc5ccccn5)c4)c23)C1` [Example 109, 7-[(2E)-4-(dimethylamino)but-2-enoyl]-N-[1-(pyridin-2-ylmethyl)-1H-indazol-5-yl]-5,6,7,8-tetrahydropyrido [4′,3′:4,5]thieno[2,3-d]pyrimidin-4-amine], the values for the negative logarithm of the IC50 (pIC50) in the experiment with A431 cells, with N87 and with H1975 cells were 6.00 to 6.70, > 6.70 and 6.00 to 6.70, respectively.

In the case of `CN(C)C/C=C/C(=O)N1CCc2c(sc3ncnc(Nc4ccc(OCc5cccnc5)c(Cl)c4)c23)C1` [Example 87, N-[3-chloro-4-(pyridin-3-ylmethoxy)phenyl]-7-[(2E)-4-(dimethylamino)but-2-enoyl]-5,6,7,8-tetrahydropyrido [4′,3′:4,5]thieno[2,3-d]pyrimidin-4-amine], the negative-log IC50 (pIC50) with A431 cells was 6.00 to 6.70; with N87 it was > 6.70; in the experiment on H1975 cells it was 6.00 to 6.70.

Take `CN(C)C/C=C/C(=O)N1CCc2c(sc3ncnc(NCc4ccccc4)c23)C1` [Example 169, N-benzyl-7-[(2E)-4-(dimethylamino)but-2-enoyl]-5,6,7,8-tetrahydropyrido [4′,3′:4,5]thieno[2,3-d]pyrimidin-4-amine]: the pIC50 is 5.00 to 6.00 in the experiment on A431 cells, > 6.70 in the experiment with N87 and 5.00 to 6.00 in the experiment with H1975 cells.

As for `CCN(C)C/C=C/C(=O)N1CCc2c(sc3ncnc(Nc4ccc(OCc5cccc(C)n5)c(Cl)c4)c23)C1` [Example 76, N-{3-chloro-4-[(6-methylpyridin-2-yl)methoxy]phenyl}-7-{(2E)-4-[ethyl(methyl)amino]but-2-enoyl}-5,6,7,8-tetrahydropyrido [4′,3′:4,5]thieno[2.3-d]pyrimidin-4-amine], the figures for the negative-log IC50 (pIC50) with A431 cells, with N87 and in the experiment on H1975 cells were 5.00 to 6.00, > 6.70 and 5.00 to 6.00, respectively.

With `CN(C)C/C=C/C(=O)N1CCc2c(sc3ncnc(Nc4cc(Cl)cc(Cl)c4)c23)C1` [Example 174, N-(3,5-dichlorophenyl)-7-[(2E)-4-(dimethylamino)but-2-enoyl]-5,6,7,8-tetrahydropyrido [4′,3′:4,5]thieno[2,3-d]pyrimidin-4-amine], the pIC50 with A431 cells is 5.00 to 6.00; with N87 it was > 6.70; in the experiment with H1975 cells, 5.00 to 6.00.

`C#Cc1cccc(Nc2ncnc3sc4c(c23)CCN(C(=O)C#CCCN2CCCCC2)C4)c1` [Example 141, N-(3-ethynylphenyl)-7-(5-piperidin-1-ylpent-2-ynoyl)-5,6,7,8-tetrahydropyrido [4′,3′:4,5]thieno[2,3-d]pyrimidin-4-amine]: the negative logarithm of the IC50 (pIC50) is 6.00 to 6.70 with A431 cells, > 6.70 in the experiment with N87 and 6.00 to 6.70 in the experiment with H1975 cells.

As for `O=C(/C=C/CN1CCCCC1)N1CCc2c(sc3ncnc(Nc4ccc5c(cnn5Cc5ccccn5)c4)c23)C1` [Example 112, 7-[(2E)-4-piperidin-1-ylbut-2-enoy]-N-[1-(pyridin-2-ylmethyl)-1H-indazol-5-yl]-5,6,7,8-tetrahydropyrido [4′,3′:4,5]thieno[2,3-d]pyrimidin-4-amine], the pIC50 was 6.00 to 6.70 in the experiment with A431 cells, > 6.70 in the experiment on N87 and 6.00 to 6.70 in the experiment on H1975 cells.

On to `CCN(CC)C/C=C/C(=O)N1CCc2c(sc3ncnc(Nc4cccc(Br)c4)c23)C1` [Example 197, N-(3-bromophenyl)-7-[(2E)-4-(diethylamino)but-2-enoyl]-5,6,7,8-tetrahydropyrido [4′,3′:4,5]thieno[2,3-d]pyrimidin-4-amine], for which the pIC50 is > 6.70 with A431 cells, > 6.70 in the experiment on N87 and 6.00 to 6.70 with H1975 cells.

Turning to `Cc1cccc(COc2ccc(Nc3ncnc4sc5c(c34)CCN(C(=O)/C=C/CN(C)C)C5)cc2Cl)n1` [Example 74, N-{3-chloro-4-[(6-methylpyridin-2-yl)methoxy]phenyl}-7-[(2E)-4-(dimethylamino)but-2-enoyl]-5,6,7,8-tetrahydropyrido [4′,3′:4,5]thieno[2,3-d]pyrimidin-4-amine], the values for the pIC50 with A431 cells, with N87 and with H1975 cells were 5.00 to 6.00, > 6.70 and 5.00 to 6.00, respectively.

Regarding `O=C(/C=C/CN1CCCCC1)N1CCc2c(sc3ncnc(Nc4ccc(Cl)c(Cl)c4)c23)C1` [Example 195, N-(3,4-dichlorophenyl)-7-[(2E)-4-piperidin-1-ylbut-2-enoyl]-5,6,7,8-tetrahydropyrido [4′,3′:4,5]thieno[2,3-d]pyrimidin-4-amine], the pIC50 with A431 cells, in the experiment on N87 and in the experiment with H1975 cells was > 6.70 throughout.

`Cc1cc(Nc2ncnc3sc4c(c23)CCN(C(=O)/C=C/CN(C)C)C4)ccc1Cl` [Example 183, N-(4-chloro-3-methylphenyl)-7-[(2E)-4-(dimethylamino)but-2-enoyl]-5,6,7,8-tetrahydropyrido [4′,3′:4,5]thieno[2,3-d]pyrimidin-4-amine]: the pIC50 in the experiment with A431 cells was 6.00 to 6.70; with N87 it was > 6.70; with H1975 cells it was > 6.70.

Regarding `Cc1cccc(COc2ccc(Nc3ncnc4sc5c(c34)CCN(C(=O)/C=C/CN3CCCC3)C5)cc2Cl)n1` [Example 78, N-{3-chloro-4-[(6-methylpyridin-2-yl)methoxy]phenyl}-7-[(2E)-4-pyrrolidin-1-ylbut-2-enoyl]-5,6,7,8-tetrahydropyrido [4′,3′:4,5]thieno[2,3-d]pyrimidin-4-amine], the results for the pIC50 in the experiment on A431 cells, in the experiment on N87 and in the experiment on H1975 cells were 5.00 to 6.00, > 6.70 and 5.00 to 6.00, respectively.

As to `CC1CCC(C)N1C/C=C/C(=O)N1CCc2c(sc3ncnc(Nc4ccc(OCc5ccccn5)c(Cl)c4)c23)C1` (stereo not drawn) [Example 48, N-[3-chloro-4-(pyridin-2-ylmethoxy)phenyl]-7-[(2E)-4-(2,5-dimethylpyrrolidin-1-yl)but-2-enoyl]-5,6,7,8-tetrahydropyrido [4′,3′:4,5]thieno[2,3-d]pyrimidin-4-amine], the pIC50 with A431 cells was 5.00 to 6.00; in the experiment on N87 it was > 6.70; with H1975 cells, 5.00 to 6.00.

With `CC(C)N(C)C/C=C/C(=O)N1CCc2c(sc3ncnc(Nc4ccc5c(cnn5Cc5cccc(F)c5)c4)c23)C1` [Example 123, N-[1-(3-fluorobenzyl)-1H-indazol-5-yl]-7-{(2E)-4-[isopropyl(methyl)amino]but-2-enoyl}-5,6,7,8-tetrahydropyrido [4′,3′:4,5]thieno[2,3-d]pyrimidin-4-amine], the negative-log IC50 (pIC50) in the experiment on A431 cells, with N87 and in the experiment with H1975 cells was > 6.70 each time.

As for `O=C(/C=C/CN1CCc2ccccc21)N1CCc2c(sc3ncnc(Nc4ccc(F)c(Cl)c4)c23)C1` [Example 38, N-(3-chloro-4-fluorophenyl)-7-[(2E)-4-(2,3-dihydro-1H-indol-1-yl)but-2-enoyl]-5,6,7,8-tetrahydropyrido [4′3′:4,5]thieno[2,3-d]pyrimidin-4-amine], the values for the pIC50 in the experiment with A431 cells, in the experiment on N87 and in the experiment on H1975 cells were 5.00 to 6.00, 5.30 to 6.70 and 5.00 to 6.00, respectively.

As for `CN(C)C/C=C/C(=O)N1CCc2c(sc3ncnc(Nc4ccc(Cl)cc4)c23)C1` [Example 163, N-(4-chlorophenyl)-7-[(2E)-4-(dimethylamino)but-2-enoyl]-5,6,7,8-tetrahydropyrido [4′,3′:4,5]thieno[2,3-d]pyrimidin-4-amine], the results for the pIC50 in the experiment on A431 cells, with N87 and with H1975 cells were 6.00 to 6.70, > 6.70 and 6.00 to 6.70, respectively.

As for `CC(C)N(C)C/C=C/C(=O)N1CCc2c(sc3ncnc(Nc4cccc(Br)c4)c23)C1` [Example 189, N-(3-bromophenyl)-7-{(2E)-4-[isopropyl(methyl)amino]but-2-enoyl}-5,6,7,8-tetrahydropyrido [4′,3′:4,5]thieno[2,3-d]pyrimidin-4-amine], the pIC50 was 6.00 to 6.70 in the experiment with A431 cells, > 6.70 in the experiment on N87 and 6.00 to 6.70 in the experiment on H1975 cells.

As for `CCN(C/C=C/C(=O)N1CCc2c(sc3ncnc(Nc4ccc(Cl)c(Cl)c4)c23)C1)C1CCCCC1` [Example 200, 7-{(2E)-4-[cyclohexyl(ethyl)amino]but-2-enoyl}-N-(3,4-dichlorophenyl)-5,6,7,8-tetrahydropyrido [4′,3′:4,5]thieno[2,3-d]pyrimidin-4-amine], the pIC50 in the experiment on A431 cells is 6.00 to 6.70; in the experiment on N87, > 6.70; with H1975 cells, 6.00 to 6.70.

With `CCN(C/C=C/C(=O)N1CCc2c(sc3ncnc(Nc4ccc(OCc5ccccn5)c(Cl)c4)c23)C1)C(C)C` [Example 70, N-[3-chloro-4-(pyridin-2-ylmethoxy)phenyl]-7-{(2E)-4-[ethyl(isopropyl)amino]but-2-enoyl}-5,6,7,8-tetrahydropyrido [4′,3′:4,5]thieno[2,3-d]pyrimidin-4-amine], the negative logarithm of the IC50 (pIC50) was 5.00 to 6.00 with A431 cells, > 6.70 in the experiment on N87 and > 6.70 in the experiment on H1975 cells.
